Common to all, as to assay: relative viability (nuclei count vs DMSO), 5 days (fraction); higher = more cells survive
Compound in the test “XMD8-85 + Crizotinib”: CN1CCN(CC1)C2=CC(=C(C=C2)NC3=NC=C4C(=N3)N(C5=CC=CC=C5C(=O)N4C)C)OC [XMD8-85] + C[C@@H](Oc1cc(-c2cnn(C3CCNCC3)c2)cnc1N)c1c(Cl)ccc(F)c1Cl [Crizotinib] (partner 1 µM)
In outline: (§1)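 After 5 days of treatment, lung cancer cells in 1536-well plates were fixed and stained in a single step (final 0.05% Triton X-100, 1% formaldehyde, 1 ug/ml Hoechst) and their nuclei counted on 4× images. Treatment had been applied by pin tool the day after seeding as one drug alone or as a fixed anchor-drug dose with five library-drug doses (not always all listed) in √10 steps. Relative viability is the nuclei count of treated wells divided by that of vehicle wells, and values are medians of duplicate plates.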

Compound in the test “4EGI-1 + Navitoclax”: O=C(O)C(Cc1ccccc1[N+](=O)[O-])=NNc1nc(-c2ccc(Cl)c(Cl)c2)cs1 (mixture of isomers) [4EGI-1] + CC1(C)CCC(c2ccc(Cl)cc2)=C(CN2CCN(c3ccc(C(=O)NS(=O)(=O)c4ccc(N[C@H](CCN5CCOCC5)CSc5ccccc5)c(S(=O)(=O)C(F)(F)F)c4)cc3)CC2)C1 [Navitoclax] (partner 0.5 µM)
In outline:
as §1

Compound in the test “4EGI-1 + Luminespib”: O=C(O)C(Cc1ccccc1[N+](=O)[O-])=NNc1nc(-c2ccc(Cl)c(Cl)c2)cs1 (mixture of isomers) [4EGI-1] + CCNC(=O)c1noc(-c2cc(C(C)C)c(O)cc2O)c1-c1ccc(CN2CCOCC2)cc1 [Luminespib] (partner 0.01 µM)
In outline:
as §1

Compound in the test “4EGI-1 + Dasatinib”: O=C(O)C(Cc1ccccc1[N+](=O)[O-])=NNc1nc(-c2ccc(Cl)c(Cl)c2)cs1 (mixture of isomers) [4EGI-1] + Cc1nc(Nc2ncc(C(=O)Nc3c(C)cccc3Cl)s2)cc(N2CCN(CCO)CC2)n1 [Dasatinib] (partner 0.075 µM)
In outline: as §1

Regarding NCI-H441, the relative viability in the test with XMD8-85 + Crizotinib (first compound 0.08 µM) is 0.592; with XMD8-85 + Crizotinib (first compound 0.253 µM) it was 0.648; with XMD8-85 + Crizotinib (first compound 0.8 µM) it was 0.89; with XMD8-85 + Crizotinib (first compound 2.53 µM), 0.931; with XMD8-85 + Crizotinib (first compound 8 µM), 0.485; with 4EGI-1 + Navitoclax (first compound 0.5 µM), 0.467. Also, the relative viability was determined as 0.552 with 4EGI-1 + Navitoclax (first compound 1.581 µM); 0.449 with 4EGI-1 + Navitoclax (first compound 5 µM); 0.511 in the test with 4EGI-1 + Navitoclax (first compound 15.81 µM); 0.203 with 4EGI-1 + Navitoclax (first compound 50 µM); 0.375 with 4EGI-1 + Luminespib (first compound 0.5 µM); 0.315 in the test with 4EGI-1 + Luminespib (first compound 1.581 µM). The relative viability in the test with 4EGI-1 + Luminespib (first compound 5 µM) was found to be 0.294; in the test with 4EGI-1 + Luminespib (first compound 15.81 µM), 0.306; in the test with 4EGI-1 + Luminespib (first compound 50 µM), 0.292; with 4EGI-1 + Dasatinib (first compound 0.5 µM), 0.609; with 4EGI-1 + Dasatinib (first compound 1.581 µM), 0.547; with 4EGI-1 + Dasatinib (first compound 5 µM), 0.536. In addition, the values for the relative viability in the test with 4EGI-1 + Dasatinib (first compound 15.81 µM) and with 4EGI-1 + Dasatinib (first compound 50 µM) were 0.565 and 0.229, respectively.

As for PC-3 [JPC-3], the relative viability is 0.827 with XMD8-85 + Crizotinib (first compound 0.08 µM); 1.12 in the test with XMD8-85 + Crizotinib (first compound 0.253 µM); 1.01 in the test with XMD8-85 + Crizotinib (first compound 0.8 µM); 1.09 in the test with XMD8-85 + Crizotinib (first compound 2.53 µM); 0.986 in the test with XMD8-85 + Crizotinib (first compound 8 µM); 0.82 in the test with 4EGI-1 + Navitoclax (first compound 0.5 µM). Further, the relative viability with 4EGI-1 + Navitoclax (first compound 1.581 µM) stood at 0.753; with 4EGI-1 + Navitoclax (first compound 5 µM) it was 0.765; in the test with 4EGI-1 + Navitoclax (first compound 50 µM) it was 0.612; with 4EGI-1 + Luminespib (first compound 0.5 µM), 0.829; in the test with 4EGI-1 + Luminespib (first compound 1.581 µM), 0.717; with 4EGI-1 + Luminespib (first compound 5 µM) it was 0.718. Moreover, the relative viability is 0.543 in the test with 4EGI-1 + Luminespib (first compound 50 µM); 1.03 in the test with 4EGI-1 + Dasatinib (first compound 0.5 µM); 0.978 in the test with 4EGI-1 + Dasatinib (first compound 1.581 µM); 0.893 with 4EGI-1 + Dasatinib (first compound 5 µM); 0.937 with 4EGI-1 + Dasatinib (first compound 50 µM).

As to NCI-H1915, the relative viability with XMD8-85 + Crizotinib (first compound 0.08 µM) was determined as 1.06; with XMD8-85 + Crizotinib (first compound 0.253 µM), 0.909; with XMD8-85 + Crizotinib (first compound 0.8 µM), 0.943; in the test with XMD8-85 + Crizotinib (first compound 2.53 µM), 0.998; with XMD8-85 + Crizotinib (first compound 8 µM), 0.882; in the test with 4EGI-1 + Navitoclax (first compound 0.5 µM), 0.825. Also, the relative viability in the test with 4EGI-1 + Navitoclax (first compound 1.581 µM) worked out at 0.606; in the test with 4EGI-1 + Navitoclax (first compound 5 µM), 0.797; with 4EGI-1 + Navitoclax (first compound 15.81 µM), 0.754; with 4EGI-1 + Navitoclax (first compound 50 µM), 0.596; with 4EGI-1 + Luminespib (first compound 0.5 µM), 0.838; in the test with 4EGI-1 + Luminespib (first compound 1.581 µM), 0.606. Besides, the relative viability with 4EGI-1 + Luminespib (first compound 5 µM) came to 0.774; with 4EGI-1 + Luminespib (first compound 15.81 µM), 0.572; with 4EGI-1 + Luminespib (first compound 50 µM) it was 0.222; in the test with 4EGI-1 + Dasatinib (first compound 0.5 µM) it was 0.358; with 4EGI-1 + Dasatinib (first compound 1.581 µM), 0.257; in the test with 4EGI-1 + Dasatinib (first compound 5 µM), 0.314. Also, the relative viability in the test with 4EGI-1 + Dasatinib (first compound 15.81 µM) was found to be 0.311; with 4EGI-1 + Dasatinib (first compound 50 µM), 0.163.

NCI-H2228: the relative viability in the test with XMD8-85 + Crizotinib (first compound 0.08 µM) was 0.454; with XMD8-85 + Crizotinib (first compound 0.253 µM), 0.442; with XMD8-85 + Crizotinib (first compound 0.8 µM), 0.521; with XMD8-85 + Crizotinib (first compound 2.53 µM) it was 0.528; in the test with XMD8-85 + Crizotinib (first compound 8 µM), 0.26; in the test with 4EGI-1 + Navitoclax (first compound 0.5 µM), 1.08. For the same cell line, the relative viability in the test with 4EGI-1 + Navitoclax (first compound 1.581 µM) was 1.08; with 4EGI-1 + Navitoclax (first compound 5 µM), 0.99; in the test with 4EGI-1 + Navitoclax (first compound 15.81 µM), 0.617; in the test with 4EGI-1 + Navitoclax (first compound 50 µM) it was 0.931; in the test with 4EGI-1 + Luminespib (first compound 0.5 µM), 0.147; in the test with 4EGI-1 + Luminespib (first compound 1.581 µM) it was 0.148. In addition, the relative viability worked out at 0.258 with 4EGI-1 + Luminespib (first compound 5 µM); 0.135 with 4EGI-1 + Luminespib (first compound 15.81 µM); 0.17 in the test with 4EGI-1 + Luminespib (first compound 50 µM); 0.472 with 4EGI-1 + Dasatinib (first compound 0.5 µM); 0.653 with 4EGI-1 + Dasatinib (first compound 1.581 µM); 0.496 with 4EGI-1 + Dasatinib (first compound 5 µM). Besides, the relative viability with 4EGI-1 + Dasatinib (first compound 15.81 µM) worked out at 0.552; in the test with 4EGI-1 + Dasatinib (first compound 50 µM) it was 0.13.

As to LOU-NH91, the relative viability turned out to be 0.749 with XMD8-85 + Crizotinib (first compound 0.08 µM); 0.741 with XMD8-85 + Crizotinib (first compound 0.253 µM); 0.728 with XMD8-85 + Crizotinib (first compound 0.8 µM); 0.725 with XMD8-85 + Crizotinib (first compound 2.53 µM); 0.67 with XMD8-85 + Crizotinib (first compound 8 µM); 0.91 with 4EGI-1 + Navitoclax (first compound 0.5 µM). The relative viability turned out to be 0.741 in the test with 4EGI-1 + Navitoclax (first compound 5 µM); 0.367 with 4EGI-1 + Navitoclax (first compound 15.81 µM); 0.526 with 4EGI-1 + Navitoclax (first compound 50 µM); 0.351 in the test with 4EGI-1 + Luminespib (first compound 0.5 µM); 0.398 with 4EGI-1 + Luminespib (first compound 5 µM); 0.328 with 4EGI-1 + Luminespib (first compound 15.81 µM). In addition, the relative viability with 4EGI-1 + Luminespib (first compound 50 µM) is 0.34; with 4EGI-1 + Dasatinib (first compound 0.5 µM), 0.569; in the test with 4EGI-1 + Dasatinib (first compound 5 µM) it was 0.505; in the test with 4EGI-1 + Dasatinib (first compound 15.81 µM), 0.378; with 4EGI-1 + Dasatinib (first compound 50 µM) it was 0.458.

As for NCI-H1666, the relative viability with XMD8-85 + Crizotinib (first compound 0.08 µM) was found to be 0.789; in the test with XMD8-85 + Crizotinib (first compound 0.253 µM) it was 0.917; in the test with XMD8-85 + Crizotinib (first compound 0.8 µM), 1.35; with XMD8-85 + Crizotinib (first compound 2.53 µM), 1.31; with XMD8-85 + Crizotinib (first compound 8 µM) it was 0.705; with 4EGI-1 + Navitoclax (first compound 0.5 µM) it was 1.14. Moreover, the relative viability with 4EGI-1 + Navitoclax (first compound 1.581 µM) stood at 1.05; in the test with 4EGI-1 + Navitoclax (first compound 5 µM), 1.31; with 4EGI-1 + Navitoclax (first compound 15.81 µM), 0.833; with 4EGI-1 + Navitoclax (first compound 50 µM) it was 0.248; with 4EGI-1 + Luminespib (first compound 0.5 µM), 1.1; with 4EGI-1 + Luminespib (first compound 1.581 µM), 0.982. Besides, the relative viability with 4EGI-1 + Luminespib (first compound 5 µM) worked out at 1.04; with 4EGI-1 + Luminespib (first compound 15.81 µM), 0.812; with 4EGI-1 + Luminespib (first compound 50 µM), 0.397; with 4EGI-1 + Dasatinib (first compound 0.5 µM), 0.838; with 4EGI-1 + Dasatinib (first compound 1.581 µM), 0.717; with 4EGI-1 + Dasatinib (first compound 5 µM), 0.834. Moreover, the relative viability with 4EGI-1 + Dasatinib (first compound 15.81 µM) came to 0.566; with 4EGI-1 + Dasatinib (first compound 50 µM) it was 0.374.

SK-MES-1: the relative viability is 0.964 with XMD8-85 + Crizotinib (first compound 0.08 µM); 1.03 with XMD8-85 + Crizotinib (first compound 0.253 µM); 0.94 in the test with XMD8-85 + Crizotinib (first compound 0.8 µM); 0.923 with XMD8-85 + Crizotinib (first compound 2.53 µM); 0.61 with XMD8-85 + Crizotinib (first compound 8 µM); 1.18 in the test with 4EGI-1 + Navitoclax (first compound 0.5 µM). Further, the relative viability in the test with 4EGI-1 + Navitoclax (first compound 1.581 µM) was determined as 1.27; in the test with 4EGI-1 + Navitoclax (first compound 5 µM), 1.19; in the test with 4EGI-1 + Navitoclax (first compound 15.81 µM) it was 1.01; with 4EGI-1 + Navitoclax (first compound 50 µM), 0.949; with 4EGI-1 + Luminespib (first compound 0.5 µM), 0.705; with 4EGI-1 + Luminespib (first compound 1.581 µM), 0.686. Besides, the relative viability came out at 0.831 with 4EGI-1 + Luminespib (first compound 5 µM); 0.669 with 4EGI-1 + Luminespib (first compound 15.81 µM); 0.188 in the test with 4EGI-1 + Luminespib (first compound 50 µM); 0.479 with 4EGI-1 + Dasatinib (first compound 0.5 µM); 0.312 with 4EGI-1 + Dasatinib (first compound 1.581 µM); 0.34 with 4EGI-1 + Dasatinib (first compound 5 µM). Besides, the relative viability came to 0.356 with 4EGI-1 + Dasatinib (first compound 15.81 µM) and 0.198 in the test with 4EGI-1 + Dasatinib (first compound 50 µM).

For the origin of these results see the supplement of paper PMC10307832.
